The values below come from patent US12435059B2, “AMP-activated protein kinase inhibitors and methods of making and using the same” (The Regents of the University of Colorado, priority 2019, dated 2025).

In assay [1] the target is KDR (Homo sapiens (Human), UniProt P35968). Briefly: LanthaScreen Eu TR-FRET KDR competitive binding assay. A general note: Time-resolved FRET reads energy transfer from a long-lived donor to a nearby acceptor.
Assay [2] has as its target AMPK(α2) (Homo sapiens (Human), UniProt P54646). Description: LANCE Eu TR-FRET recombinant kinase assay, AMPK(α2). The assay is classed as biochemical. The conditions noted are these: mean±S.D. (n=3); ATP 20 μM. Here is the method:
(§1) Assays were performed at 25° C. in a reaction mixture consisting of 2.5 μL serially diluted inhibitor solution, 2.5 μL kinase, 2.5 μL ATP and 2.5 μL substrate. Reagents were incubated for 1 hr before the reaction was halted through the addition of EDTA (10 mM) after which Eu anti-phospho-CREB (Ser133) antibody (PerkinElmer) was added at a final concentration of 2 nM for 1 hr. […] (n=3)).

For assay [3], the system named is K562 cells. Description: CellTox green cellular toxicity assay in K562 cells (glucose-free media). Type of assay: cell-based. The conditions noted are these: Homo sapiens. From the text:
Fluorescence was plotted against inhibitor log-dose and evaluated by a non-linear regression to determine half-maximal effect concentration (EC50) values, where possible.
(§2) In order to increase the reliance of the cells on AMPK function, assays were needed that could be performed under glucose-free conditions. Therefore in order to elucidate the mechanism of action of the AMPK inhibitors, a CellTiter-Glo cell viability assay (FIG. 3B), which provide a readout proportional to ATP concentration, and thus, cellular viability, as well as a CellTox green cellular toxicity assay (FIG. 3C and FIG. 3D), which contain a dye that fluoresces upon DNA-binding in cells with impraied membrane integrity due to cytotoxicity were performed in K562 cells grown in glucose-free media. The results are summarized in Table 2 (values are the mean±S.D. (n=3)).

The subject of assay [4] is K562 cells. Briefly: MTS cell viability assay in K562 cells. The assay is classed as cell-based. The following applies: Homo sapiens; K562, RPMI-1640; Table 2 head prints 24 h, method and FIG. 3A legend 72 hours. Here is the method:
(§3) The cells were incubated with inhibitors for 24 hours, before the plates were equilibrated to room temperature and 100 μL CellTiter-Glo reagent was added. […] Luminescent signal was plotted against the inhibitor log-dose and evaluated by a non-linear regression to determine half-maximal effect concentration (EC50) values, where possible.
An MTS assay was utilized to assess the effect of inhibitors on K562 viability.
(Tetrazolium dyes change colour on reduction, which living cells bring about.)

For assay [5], the target named is AMPKα1 (Homo sapiens (Human), UniProt Q13131). Briefly: LANCE Eu TR-FRET recombinant kinase assay, AMPK(α1). The assay is classed as biochemical. The method, then: as §1
Assay [6] concerns K562 cells. Description: CellTiter-Glo cell viability assay in K562 cells (glucose-free media). The following applies: Homo sapiens, read-out: EC50 CellTiter Glo 24 h. Type of assay: cell-based. The method, then:
as §3, §2
(In general: In ATP-based viability assays light output follows the ATP content of the culture.)

[7] abbreviates: read-out: IC50 (nM) KDR, mean±S.D. (n=3), competitive binding.
Where [8] appears, read: read-out: EC50 CellTox Green 48 h, 48 h.
The mark [9] stands for this setting: mean±S.D. (n=3), ATP 8 μM, read-out: IC50 (nM) AMPK(α1).
[10] abbreviates: read-out: EC50 CellTox Green 24 h, 24 h.

Like-named read-outs stand apart in the source and are kept apart here.

KDR, sequence (P35968 20-1356): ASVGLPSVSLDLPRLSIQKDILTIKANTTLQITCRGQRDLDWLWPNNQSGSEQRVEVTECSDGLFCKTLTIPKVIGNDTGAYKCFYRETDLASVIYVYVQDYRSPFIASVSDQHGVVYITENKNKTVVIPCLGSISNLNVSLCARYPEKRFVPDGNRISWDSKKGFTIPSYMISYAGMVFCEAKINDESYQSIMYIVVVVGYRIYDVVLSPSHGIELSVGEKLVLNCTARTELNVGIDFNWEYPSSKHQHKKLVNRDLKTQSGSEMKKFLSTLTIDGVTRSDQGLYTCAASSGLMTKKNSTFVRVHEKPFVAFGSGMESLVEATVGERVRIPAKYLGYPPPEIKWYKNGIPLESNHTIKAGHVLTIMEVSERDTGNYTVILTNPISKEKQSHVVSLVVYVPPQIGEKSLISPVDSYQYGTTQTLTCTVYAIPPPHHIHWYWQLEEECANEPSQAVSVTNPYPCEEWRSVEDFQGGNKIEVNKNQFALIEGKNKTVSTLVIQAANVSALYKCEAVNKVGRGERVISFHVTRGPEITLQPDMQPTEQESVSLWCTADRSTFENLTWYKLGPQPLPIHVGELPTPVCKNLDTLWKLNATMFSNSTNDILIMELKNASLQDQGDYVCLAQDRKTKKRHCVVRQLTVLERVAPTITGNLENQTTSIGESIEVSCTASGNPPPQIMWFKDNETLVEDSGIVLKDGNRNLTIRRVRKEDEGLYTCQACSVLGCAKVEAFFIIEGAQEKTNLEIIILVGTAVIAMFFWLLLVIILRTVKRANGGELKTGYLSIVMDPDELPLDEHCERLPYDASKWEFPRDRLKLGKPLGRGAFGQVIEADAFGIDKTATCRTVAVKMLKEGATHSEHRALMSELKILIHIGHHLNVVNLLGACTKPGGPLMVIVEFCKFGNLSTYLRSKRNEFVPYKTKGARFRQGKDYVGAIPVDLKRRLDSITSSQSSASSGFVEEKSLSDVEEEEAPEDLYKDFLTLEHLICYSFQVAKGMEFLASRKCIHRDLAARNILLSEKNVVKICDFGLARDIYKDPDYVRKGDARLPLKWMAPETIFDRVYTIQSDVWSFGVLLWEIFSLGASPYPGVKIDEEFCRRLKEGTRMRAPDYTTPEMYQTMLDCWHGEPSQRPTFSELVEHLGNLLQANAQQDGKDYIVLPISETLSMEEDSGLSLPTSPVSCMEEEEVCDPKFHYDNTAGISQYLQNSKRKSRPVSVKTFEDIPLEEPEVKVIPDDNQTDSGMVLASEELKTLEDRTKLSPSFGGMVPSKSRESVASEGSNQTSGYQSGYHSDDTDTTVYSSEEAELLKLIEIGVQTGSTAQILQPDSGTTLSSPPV
AMPKα1, sequence (Q13131 whole entry, looked up): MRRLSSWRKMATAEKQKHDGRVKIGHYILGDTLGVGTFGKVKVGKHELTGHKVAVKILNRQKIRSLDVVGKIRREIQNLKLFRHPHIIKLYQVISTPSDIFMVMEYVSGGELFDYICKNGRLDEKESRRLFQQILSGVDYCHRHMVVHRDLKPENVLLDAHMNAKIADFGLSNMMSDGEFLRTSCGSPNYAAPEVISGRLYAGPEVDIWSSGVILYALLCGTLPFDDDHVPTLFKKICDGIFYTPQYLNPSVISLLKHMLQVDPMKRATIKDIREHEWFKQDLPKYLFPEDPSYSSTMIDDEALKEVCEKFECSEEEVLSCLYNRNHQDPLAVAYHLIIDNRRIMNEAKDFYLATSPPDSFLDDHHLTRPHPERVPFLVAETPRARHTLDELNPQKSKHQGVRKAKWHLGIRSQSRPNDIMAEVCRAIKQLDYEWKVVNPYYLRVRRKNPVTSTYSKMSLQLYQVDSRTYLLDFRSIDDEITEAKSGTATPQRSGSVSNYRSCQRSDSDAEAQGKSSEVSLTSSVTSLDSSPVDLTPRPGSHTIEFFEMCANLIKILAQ
AMPKα1, sequence (Q9Y478 whole entry partner, looked up): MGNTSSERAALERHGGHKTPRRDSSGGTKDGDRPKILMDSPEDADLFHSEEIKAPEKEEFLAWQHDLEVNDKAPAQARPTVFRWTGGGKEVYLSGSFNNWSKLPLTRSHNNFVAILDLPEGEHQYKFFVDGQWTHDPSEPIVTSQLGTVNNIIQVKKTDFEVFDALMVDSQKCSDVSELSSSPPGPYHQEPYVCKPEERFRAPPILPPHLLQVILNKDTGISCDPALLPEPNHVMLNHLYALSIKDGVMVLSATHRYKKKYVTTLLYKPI
AMPKα1, sequence (P54619 whole entry partner, looked up): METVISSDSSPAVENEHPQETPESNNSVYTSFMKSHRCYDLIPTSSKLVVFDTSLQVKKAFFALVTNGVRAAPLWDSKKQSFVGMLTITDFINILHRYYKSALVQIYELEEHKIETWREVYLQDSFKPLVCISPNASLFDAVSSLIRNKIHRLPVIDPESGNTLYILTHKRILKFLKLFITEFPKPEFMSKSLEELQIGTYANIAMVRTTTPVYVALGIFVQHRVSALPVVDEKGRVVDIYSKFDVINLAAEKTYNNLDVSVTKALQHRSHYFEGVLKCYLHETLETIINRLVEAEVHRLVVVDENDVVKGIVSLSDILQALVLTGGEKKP
AMPK(α2), sequence (P54646 whole entry, looked up): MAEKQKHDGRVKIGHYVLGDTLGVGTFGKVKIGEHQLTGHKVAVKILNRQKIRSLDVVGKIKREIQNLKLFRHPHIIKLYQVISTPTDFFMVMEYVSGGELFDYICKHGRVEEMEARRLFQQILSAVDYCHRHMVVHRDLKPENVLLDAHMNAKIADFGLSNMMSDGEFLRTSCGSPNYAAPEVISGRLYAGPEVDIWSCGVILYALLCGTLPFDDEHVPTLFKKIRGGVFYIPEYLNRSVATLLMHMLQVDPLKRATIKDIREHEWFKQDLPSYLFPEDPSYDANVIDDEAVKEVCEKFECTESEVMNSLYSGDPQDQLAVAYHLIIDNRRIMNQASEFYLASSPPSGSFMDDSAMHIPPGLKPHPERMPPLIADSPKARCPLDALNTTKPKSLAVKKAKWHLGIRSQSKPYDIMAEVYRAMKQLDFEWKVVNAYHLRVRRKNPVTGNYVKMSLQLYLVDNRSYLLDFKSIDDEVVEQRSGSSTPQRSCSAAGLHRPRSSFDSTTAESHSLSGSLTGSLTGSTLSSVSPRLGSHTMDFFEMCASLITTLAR
AMPK(α2), sequence (Q9Y478 whole entry partner, looked up): as the sequence (Q9Y478 whole entry partner, looked up) above
AMPK(α2), sequence (P54619 whole entry partner, looked up): as the sequence (P54619 whole entry partner, looked up) above

For `CCN(CC)CCNC(=O)c1c(C)[nH]c(/C=C2\C(=O)Nc3cc(F)ccc32)c1C` [Compound No. 20, (Z)—N-(2-(Diethylamino)ethyl)-5-((6-fluoro-2-oxoindolin-3-ylidene)methyl)-2,4-dimethyl-1H-pyrrole-3-carboxamide], the figures for the IC50 in assay [1] (setting [7]), in assay [2] and in assay [5] (setting [9]) were 189 ± 7 nM, 49.4 ± 22.1 nM and 240 ± 37 nM, respectively. The figures for the EC50 in assay [3] (setting [8]) and in assay [4] were 7150 ± 350 nM and 2850 ± 220 nM, respectively.

Consider `Cc1[nH]c(/C=C2\C(=O)Nc3ccc(F)cc32)c(C)c1C(=O)NCCN(C)C` [Compound No. 5, (Z)—N-(2-(Dimethylamino)ethyl)-5-((5-fluoro-2-oxoindolin-3-ylidene)methyl)-2,4-dimethyl-1H-pyrrole-3-carboxamide], for which the IC50 (as a rule, the concentration that inhibits the measured activity by half) in assay [1] (setting [7]) amounted to 493 ± 24 nM; in assay [2] it was 50.4 ± 17.9 nM; in assay [5] (setting [9]), 136 ± 16 nM. The EC50 (commonly the concentration needed to bring the measured effect to its halfway point) in assay [3] (setting [8]) turned out to be 13030 ± 40 nM; in assay [4], 12600 ± 930 nM.

Take `CCN(CC)CCNC(=O)c1c(C)[nH]c(/C=C2\C(=O)Nc3ccc(CCOC(C)=O)cc32)c1C` [Compound No. 11, (Z)-2-(3-((4-((2-(Diethylamino)ethyl)carbamoyl)-3,5-dimethyl-1H-pyrrol-2-yl)methylene)-2-oxoindolin-5-yl)ethyl acetate]: the IC50 in assay [2] was 111 ± 21 nM; in assay [5] (setting [9]), 418 ± 45 nM.

With `CCN(CC)CCNC(=O)c1c(C)[nH]c(/C=C2\C(=O)Nc3ccc(C#N)cc32)c1C` [Compound No. 17, (Z)-5-((5-Cyano-2-oxoindolin-3-ylidene)methyl)-N-(2-(diethylamino)ethyl)-2,4-dimethyl-1H-pyrrole-3-carboxamide], the IC50 stood at 391 ± 22 nM in assay [1] (setting [7]), 16.2 ± 7.4 nM in assay [2] and 93 ± 8 nM in assay [5] (setting [9]). Further, the EC50 in assay [3] (setting [8]) amounted to 13600 ± 350 nM; in assay [6], 19900 ± 1210 nM.

Take `CCN(CC)CCNC(=O)c1c(C)[nH]c(/C=C2\C(=O)Nc3ccc(CCN(C)C)cc32)c1C` [Compound No. 12, (Z)—N-(2-(Diethylamino)ethyl)-5-((5-(2-(dimethylamino)ethyl)-2-oxoindolin-3-ylidene)methyl)-2,4-dimethyl-1H-pyrrole-3-carboxamide]: the IC50 came to 154 ± 53 nM in assay [2] and 2100 ± 440 nM in assay [5] (text value in μM, read-out: AMPKα1 IC50).

Consider `CCN(CC)CCNC(=O)c1c(C)[nH]c(/C=C2\C(=O)Nc3cc(Br)ccc32)c1C` [Compound No. 22, (Z)-5-((6-Bromo-2-oxoindolin-3-ylidene)methyl)-N-(2-(diethylamino)ethyl)-2,4-dimethyl-1H-pyrrole-3-carboxamide], for which the IC50 in assay [2] was determined as 82.5 ± 27.9 nM; in assay [5] (setting [9]), 208 ± 33 nM.

In the case of `CCN(CC)CCNC(=O)c1c(C)[nH]c(/C=C2\C(=O)Nc3cc(C(C)C)ccc32)c1C` [Compound No. 25, N-(2-(Diethylamino)ethyl)-5-((6-isopropyl-2-oxoindolin-3-ylidene)methyl)-2,4-dimethyl-1H-pyrrole-3-carboxamide], in assay [5] (read-out: AMPK(α1) % inhibition at 20 μM), the inhibition – broadly, the relative decrease from the control value, in per cent – at 20 µM is 70%.

Regarding `CCN(CC)CCNC(=O)c1c(C)[nH]c(/C=C2\C(=O)Nc3ccc(CCNC(C)=O)cc32)c1C` [Compound No. 14, (Z)-5-((5-(2-Acetamidoethyl)-2-oxoindolin-3-ylidene)methyl)-N-(2-(diethylamino)ethyl)-2,4-dimethyl-1H-pyrrole-3-carboxamide], the IC50 is 2160 ± 101 nM in assay [1] (setting [7]), 108 ± 17 nM in assay [2] and 184 ± 11 nM in assay [5] (setting [9]).

As to `CCNCCNC(=O)c1c(C)[nH]c(/C=C2\C(=O)Nc3ccc(F)cc32)c1C` [Compound No. 6], the results for the IC50 in assay [1] (setting [7]), in assay [2] and in assay [5] (setting [9]) were 505 ± 18 nM, 61.4 ± 12.7 nM and 180 ± 24 nM, respectively. Besides, the EC50 in assay [3] (setting [10]) came to 12890 ± 110 nM; in assay [3] (setting [8]), 11900 ± 1580 nM; in assay [6] it was 15500 ± 480 nM; in assay [4] it was 13600 ± 1690 nM.

With `Cc1[nH]c(/C=C2\C(=O)Nc3ccc(F)cc32)c(C)c1C(=O)NCCN` [Compound No. 4, (Z)—N-(2-Aminoethyl)-5-((5-fluoro-2-oxoindolin-3-ylidene)methyl)-2,4-dimethyl-1H-pyrrole-3-carboxamide], the IC50 in assay [2] was 141 ± 33 nM; in assay [5] (setting [9]) it was 393 ± 27 nM.

On to `Cc1[nH]c(/C=C2\C(=O)Nc3ccc(F)cc32)c(C)c1C(=O)NCCCN(C)C` [Compound No. 7, (Z)—N-(3-(Dimethylamino)propyl)-5-((5-fluoro-2-oxoindolin-3-ylidene)methyl)-2,4-dimethyl-1H-pyrrole-3-carboxamide], for which the IC50 in assay [2] worked out at 74.8 ± 3.1 nM; in assay [5] (setting [9]), 221 ± 31 nM.

In the case of `CCN(CC)CCNC(=O)c1c(C)[nH]c(/C=C2\C(=O)Nc3ccc(CCOC)cc32)c1C` [Compound No. 9, (Z)—N-(2-(Diethylamino)ethyl)-5-((5-(2-methoxyethyl)-2-oxoindolin-3-ylidene)methyl)-2,4-dimethyl-1H-pyrrole-3-carboxamide], the IC50 in assay [2] came out at 96.6 ± 4.3 nM; in assay [5] (setting [9]), 296 ± 16 nM.

With `CCN(CC)CCNC(=O)c1c(C)[nH]c(/C=C2\C(=O)Nc3ccccc32)c1C` [Compound No. 19, (Z)—N-(2-(Diethylamino)ethyl)-2,4-dimethyl-5-((2-oxoindolin-3-ylidene)methyl)-1H-pyrrole-3-carboxamide], the figures for the IC50 in assay [2] and in assay [5] (setting [9]) were 88.5 ± 7.1 nM and 246 ± 11 nM, respectively.

For the compound `CCN(CC)CCNC(=O)c1c(C)[nH]c(/C=C2\C(=O)Nc3cc(Cl)ccc32)c1C` [Compound No. 21, (Z)-5-((6-Chloro-2-oxoindolin-3-ylidene)methyl)-N-(2-(diethylamino)ethyl)-2,4-dimethyl-1H-pyrrole-3-carboxamide], the IC50 was 206 ± 7 nM in assay [1] (setting [7]), 65.1 ± 12.3 nM in assay [2] and 217 ± 37 nM in assay [5] (setting [9]). Besides, the EC50 was 5240 ± 220 nM in assay [3] (setting [10]), 4180 ± 410 nM in assay [3] (setting [8]) and 3830 ± 460 nM in assay [6].

Turning to `CCN(CC)CCCNC(=O)c1c(C)[nH]c(/C=C2\C(=O)Nc3ccc(F)cc32)c1C` [Compound No. 8, (Z)—N-(3-(Diethylamino)propyl)-5-((5-fluoro-2-oxoindolin-3-ylidene)methyl)-2,4-dimethyl-1H-pyrrole-3-carboxamide], the IC50 worked out at 480 ± 52 nM in assay [1] (setting [7]), 38.6 ± 10.6 nM in assay [2] and 152 ± 22 nM in assay [5] (setting [9]). Besides, the EC50 amounted to 13270 ± 80 nM in assay [3] (setting [8]), 18000 ± 320 nM in assay [6] and 13500 ± 590 nM in assay [4].

As for `CCN(CC)CCNC(=O)c1c(C)[nH]c(/C=C2\C(=O)Nc3ccc(CCN=[N+]=[N-])cc32)c1C` [Compound No. 13, (Z)-5-((5-(2-Azidoethyl)-2-oxoindolin-3-ylidene)methyl)-N-(2-(diethylamino)ethyl)-2,4-dimethyl-1H-pyrrole-3-carboxamide], the IC50 stood at 2260 ± 110 nM in assay [1] (read-out: KDR IC50, values in μM); 101 ± 20 nM in assay [2]; 139 ± 13 nM in assay [5] (setting [9]). The EC50 in assay [3] (setting [8]) worked out at 4810 ± 80 nM; in assay [6], 4860 ± 160 nM; in assay [4] it was 3830 ± 50 nM.

Turning to `CCc1ccc2c(c1)NC(=O)/C2=C\c1[nH]c(C)c(C(=O)NCCN(CC)CC)c1C` [Compound No. 24, (Z)—N-(2-(Diethylamino)ethyl)-5-((6-ethyl-2-oxoindolin-3-ylidene)methyl)-2,4-dimethyl-1H-pyrrole-3-carboxamide], the IC50 in assay [5] (setting [9]) came out at 348 ± 71 nM.

`CCN(CC)CCNC(=O)c1c(C)[nH]c(/C=C2\C(=O)Nc3ccc(CNC(N)=O)cc32)c1C` [Compound No. 18, (Z)—N-(2-(Diethylamino)ethyl)-2,4-dimethyl-5-((2-oxo-5-(ureidomethyl)indolin-3-ylidene)methyl)-1H-pyrrole-3-carboxamide]: the IC50 in assay [2] turned out to be 83.6 ± 7 nM; in assay [5] (setting [9]), 205 ± 52 nM.
